Assay results as given in ChEMBL document CHEMBL5244272 (Eur J Med Chem, 2021).
≈ marks a conversion by molar mass, not a printed value.

Key:
[1] = system: Plasmodium vinckei; assay: Antimalarial activity against Plasmodium vinckei infected in mouse assessed as reduction in parasitaemia at 50 mg/kg, po or […], ip measured on day 5; type: functional; design: scale not given: the % may be the effect or the level left
[2] = system: Plasmodium vinckei; assay: Antimalarial activity against Plasmodium vinckei infected in mouse assessed as reduction in parasitaemia at 25 mg/kg, po or 7.5 mg/kg, ip measured on day 5; type: functional; design: scale not given: the % may be the effect or the level left
[3] = system: Plasmodium berghei; assay: Antimalarial activity against Plasmodium berghei infected in mouse assessed reduction in parasitemia measured after 4 days; type: functional; design: scale not given: the % may be the effect or the level left; settings: time 4 day
[4] = system: Plasmodium berghei; assay: Antimalarial activity against Plasmodium berghei infected in mouse assessed increase in survival time; type: functional
[5] = system: Plasmodium berghei; assay: Antimalarial activity against Plasmodium berghei infected in mouse assessed cured animal rate measured after 25 days; type: functional; settings: time 25 day
[6] = system: Plasmodium falciparum; assay: Antimalarial activity against Plasmodium falciparum K1; type: functional, organism-based
[7] = system: Plasmodium falciparum; assay: Antimalarial activity against chloroquine sensitive Plasmodium falciparum FCR-3; type: functional, organism-based
[8] = system: Plasmodium berghei; assay: Antimalarial activity against Plasmodium berghei N strain infected in mouse at 15 mg/kg, ip administered once daily for 4 days; type: functional; settings: time 4 day
[9] = system: Plasmodium berghei; assay: Antimalarial activity against Plasmodium berghei N strain infected in mouse at 30 mg/kg, ip administered once daily for 4 days; type: functional; settings: time 4 day
[10] = Cytotoxicity against human MRC5 cells; type: toxicity, cell-based
[11] = system: Plasmodium yoelii; assay: Antimalarial activity against Plasmodium yoelii BY265 infected in mouse assessed reduction in parasitemia at 4.4 to […], iv administered for 4 consecutive days; type: functional; design: scale not given: the % may be the effect or the level left
[12] = system: Plasmodium falciparum; assay: Antimalarial activity against chloroquine resistant Plasmodium falciparum FcB1/Colombia; type: functional, organism-based
[13] = Selectivity index, ratio of IC50 for human AB943 to IC50 for chloroquine resistant Plasmodium falciparum FcB1/Colombia
[14] = system: Plasmodium falciparum; assay: Antimalarial activity against Plasmodium falciparum INDO; type: functional, organism-based
[15] = system: Plasmodium falciparum; assay: Potency index, ratio of chloroquine IC50 to test compound IC50 for Plasmodium falciparum INDO; type: functional
[16] = Cytotoxicity against HEK293 cells; type: toxicity, cell-based; settings: human
[17] = system: Plasmodium berghei; assay: Antimalarial activity against Plasmodium berghei infected in mouse; type: functional; settings: Plasmodium berghei
[18] = system: Plasmodium berghei; assay: Antimalarial activity against Plasmodium berghei K173 infected in mouse; type: functional; settings: Plasmodium berghei, K173
[19] = system: Plasmodium berghei; assay: Potency index, ratio of artesunic acid ED50 to test compound ED50 for Plasmodium berghei; type: functional
[20] = system: Plasmodium falciparum; assay: Antimalarial activity against Plasmodium falciparum 3D7; type: functional, organism-based
[21] = system: CCRF-CEM; assay: Cytotoxicity against human CCRF-CEM cells; type: functional, cell-based
[22] = system: ADR5000 cell line; assay: Cytotoxicity against human CEM/ADR5000 cells; type: functional, cell-based
[23] = system: Plasmodium falciparum; assay: Antimalarial activity against chloroquine resistant Plasmodium falciparum; type: functional, organism-based
[24] = system: Plasmodium falciparum; assay: Antimalarial activity against Plasmodium falciparum IV-V gametocytes; type: functional, organism-based
[25] = system: Plasmodium berghei; assay: Antimalarial activity against Plasmodium berghei infected in mouse assessed as increase in survival at 100 mg/kg, po; type: functional
[26] = system: Plasmodium falciparum; assay: Antimalarial activity against Plasmodium falciparum W2; type: functional, organism-based
[27] = system: Plasmodium falciparum; assay: Antimalarial activity against Plasmodium falciparum NF54; type: functional, organism-based
[28] = system: Plasmodium falciparum; assay: Antimalarial activity against late stage Plasmodium falciparum gametocytes; type: functional, organism-based
[29] = system: Plasmodium berghei; assay: Antimalarial activity against Plasmodium berghei ANKA infected in mouse at 30 mg/kg, po; type: functional
[30] = system: Plasmodium berghei; assay: Antimalarial activity against Plasmodium berghei ANKA infected in po dosed mouse; type: functional; settings: Plasmodium berghei, ANKA
[31] = system: Plasmodium chabaudi; assay: Antimalarial activity against Plasmodium chabaudi infected in mouse; type: functional
[32] = system: Plasmodium falciparum; assay: Antimalarial activity against chloroquine-sensitive Plasmodium falciparum NF54; type: functional, organism-based
[33] = system: Plasmodium falciparum; assay: Potency index, ratio of artesunate IC50 to test compound IC50 for Plasmodium falciparum NF54; type: functional
[34] = read-out: ED50 (the source's name)

**Q.** Which Activity [1] does the source give for `C[C@H]1[C@@H](OCCN(CCCNc2ccnc3cc(Cl)ccc23)CCO[C@H]2O[C@@H]3O[C@]4(C)CC[C@H]5[C@H](C)CC[C@@H]([C@H]2C)[C@@]35OO4)O[C@@H]2O[C@]3(C)CC[C@H]4[C@H](C)CC[C@@H]1[C@@]24OO3` here?
**A.** <1%

**Q.** What about the Activity [2] of the same molecule?
**A.** <1%

**Q.** With `CCN(CC)Cc1cc(C2CCC3(CC2)OOC2(OO3)C3CC4CC(C3)CC2C4)ccc1O` (stereo not given) as the molecule, how does the Activity [3] read?
**A.** >99.7%

**Q.** And the Time [4]?
**A.** 27 days

**Q.** What about the Activity [5] of the same molecule?
**A.** 66%

**Q.** For `C[C@H]1C(=O)O[C@@H]2O[C@]3(C)CC[C@H]4N(Cc5ccccc5)CC[C@@H]1[C@@]24OO3`, which IC50 [6] is on record?
**A.** 86 nM

**Q.** And the IC50 [7]?
**A.** 58 nM

**Q.** What about the Activity [8] of the same molecule?
**A.** 69.1%

**Q.** What about the Activity [9] of the same molecule?
**A.** 95.6%

**Q.** What about the IC50 [10] of the same molecule?
**A.** 160000 nM

**Q.** Which Activity [11] does the source give for `CCCCCCCCCCCCCC[N+](C)(C)CCOC(=O)c1ccc(COC2O[C@@H]3O[C@]4(C)CC[C@H]5[C@H](C)CC[C@@H]([C@H]2C)[C@@]35OO4)cc1.[Br-]` (stereo not given in full) here?
**A.** >50%

**Q.** For `CCOP(=O)(CCCN(O)C(=O)CCC(=O)N(CCCCNC(=O)CC[C@@H]1O[C@@H]2O[C@@]3(C)CC[C@@H]4[C@@H](C)CC[C@@H]([C@@H]1C)[C@]24OO3)CCCNC(=O)CCO[C@H]1O[C@@H]2O[C@]3(C)CC[C@H]4[C@H](C)CC[C@@H]([C@H]1C)[C@@]24OO3)OCC`, which IC50 [12] is on record?
**A.** 0.36 nM

**Q.** And the Ratio IC50 [13]?
**A.** 94

**Q.** For `C=C(c1ccc(-c2cccc3ccccc23)cc1)C1COC2(CCCC2)OO1` (stereo not given), which IC50 [14] is on record?
**A.** 59 nM

**Q.** And the “Ratio IC50” value [15]?
**A.** >9

**Q.** What about the CC50 [16] of the same molecule?
**A.** 3300 nM

**Q.** With `CC(O[C@H]1O[C@@H]2O[C@@]3(C)CC[C@H]4[C@H](C)CC[C@@H]([C@H]1C)[C@@]24OO3)c1ccc(CN2CCOCC2)c(O)c1` (stereo not given in full) as the molecule, how does the ED50 [17] read?
**A.** 0.64 mg/kg/day

**Q.** What about the ED50 [18] of the same molecule?
**A.** 0.64 mg/kg/day

**Q.** And the “Ratio ED50” value [19]?
**A.** 10

**Q.** Which EC50 ([20]; read-out: EC50) does the source give for `C[C@H]1[C@H](OC(=O)CCC(=O)Nc2ccc3ncnc(Cc4ccc(Cl)c(Cl)c4)c3c2)O[C@@H]2O[C@]3(C)CC[C@H]4[C@H](C)CC[C@@H]1[C@@]24OO3` here?
**A.** 1.4 nM

**Q.** What about the EC50 [21] of the same molecule?
**A.** 2800 nM

**Q.** And the EC50 [22]?
**A.** 500 nM

**Q.** With `CC(=O)OCCC[C@]12O[C@H]([C@@H]3OO[C@H]1O3)[C@H](C)C(=O)[C@@H]2C` as the molecule, how does the IC50 [23] read?
**A.** 3 microg/cm3

**Q.** What does the source list for `C[C@H]1[C@@H](OCCN2CC[N+](CCNc3ccnc4cc(Cl)ccc34)(CCO[C@H]3O[C@@H]4O[C@]5(C)CC[C@H]6[C@H](C)CC[C@@H]([C@H]3C)[C@@]46OO5)CC2)O[C@@H]2O[C@]3(C)CC[C@H]4[C@H](C)CC[C@@H]1[C@@]24OO3`?
**A.** Activity [1]: <1%; Activity [2]: <1%

**Q.** For `CCCCNC(=O)CCC(C)[C@H]1CCC2C3C(C[C@H](OC(C)=O)[C@@]21C)[C@@]1(C)CCC2(C[C@H]1C[C@H]3OC(C)=O)OOCOO2` (stereo not given in full), which IC50 [24] is on record?
**A.** 1160 nM

**Q.** With `C[C@H]1[C@@H](OCC(CO[C@H]2O[C@@H]3O[C@]4(C)CC[C@H]5[C@H](C)CC[C@@H]([C@H]2C)[C@@]35OO4)=NOC(=O)CCC(=O)O)O[C@@H]2O[C@]3(C)CC[C@H]4[C@H](C)CC[C@@H]1[C@@]24OO3` as the molecule, how does the Activity [25] read?
**A.** 100%

**Q.** Which results are given for `C[C@@H]1CC[C@H]2[C@@H](C)C(=O)N(S(=O)(=O)c3cccs3)[C@@H]3O[C@]4(C)CC[C@@H]1[C@@]23OO4`?
**A.** IC50 [26]: 4.26 nM; IC50 [6]: 6.27 nM; IC50 [27]: 5.68 nM; IC50 [28]: 8.6 nM

**Q.** With `O=C(CC1CCC2(CC1)OOC1(OO2)C2CC3CC(C2)CC1C3)N1CCOCC1` (stereo not given) as the molecule, how does the Activity [29] read?
**A.** 100%

**Q.** And the ED90 [30]?
**A.** 3.88 mg/kg

**Q.** With `CCOP(=O)(CCCN(O)C(=O)CCC(=O)N(CCCCNC(=O)CCO[C@H]1O[C@@H]2O[C@]3(C)CC[C@H]4[C@H](C)CC[C@@H]([C@H]1C)[C@@]24OO3)CCCCNC(=O)CC[C@@H]1O[C@@H]2O[C@@]3(C)CC[C@@H]4[C@@H](C)CC[C@@H]([C@@H]1C)[C@]24OO3)OCC` as the molecule, how does the IC50 [12] read?
**A.** 0.65 nM

**Q.** And the Ratio IC50 [13]?
**A.** 34

**Q.** Which results are given for `C[C@H]1[C@@H](CCc2ccc(C(=O)O)cc2)O[C@@H]2O[C@]3(C)CC[C@H]4[C@H](C)CC[C@@H]1[C@@]24OO3`?
**A.** EC50 [6, 34]: 0.6 ng/mL (≈ 1.44 nM); EC50 [20, 34]: 1.1 ng/mL; Activity [31]: 98.7%

**Q.** What does the source list for `C[C@H]1[C@H](OC(=O)c2cccc3c2OCO3)O[C@@H]2O[C@]3(C)CC[C@H]4[C@H](C)CC[C@@H]1[C@@]24OO3`?
**A.** IC50 [32]: 8.08 nM; Ratio IC50 [33]: 2.3
